The values below come from ChEMBL document CHEMBL1136331, “Photoregulation of deacylation rate of acyl trypsin derived from photoresponsive inverse substrate” (Bioorg Med Chem Lett, 2003).

Test [1] in a line: Kinetic parameter for rate constant of acylation step (k2) was determined.
Test [2] can be described thus: Kinetic parameter for rate constant of deacylation step (k3) was determined.
Test [3] is described as follows: Ratio of kinetic parameter (k2) to that of kinetic parameter(Ks).

The structures appear in SMILES notation.

Consider `N=C(N)Nc1ccc(OC(=O)c2ccc(/N=N\c3ccccc3)cc2)cc1`, for which the k2 in test [1] amounted to 7.75 s⁻¹. In test [2], this molecule returned a k3 of 0.000702 s⁻¹. The k2/Ks in test [3] came to 164000 M⁻¹ s⁻¹.
The matching figures for `N=C(N)Nc1ccc(OC(=O)c2ccc(/N=N/c3ccccc3)cc2)cc1`: 1.06 s⁻¹, 0.000378 s⁻¹ and 151000 M⁻¹ s⁻¹.
